Assay results taken from patent US5206227A, “Composition and use of phosphonic acid, (2-halo-2-cyanoethenyl)-dialkyl esters as antimicrobials” (priority 1992, dated 1993).

How the values were obtained:
Salmonella choleraesuis = assay: Minimum inhibitory concentration (MIC), nutrient agar; format: cell-based, Salmonella choleraesuis (ATCC 10708); details: Sc, 30° C., 48 hours
Method: (§1) The minimum inhibitory concentration (MIC) for compounds of this invention, listed in Table I, is determined for 9 bacteria, using nutrient agar, and 7 yeast and fungi, using malt yeast agar. A one percent solution of a compound is prepared in a mixture of acetone and water. Nutrient agar is prepared at pH 6.8, representing a neutral medium, and at pH 8.2, representing an alkaline medium. The nutrient agars are prepared by adding 23 g of nutrient agar to one-liter of deionized water. In addition, the alkaline medium is prepared by adjusting a 0.04M solution of N-[tris-(hydroxymethyl)methyl]-glycine buffered deionized water with concentrated sodium hydroxide to a pH of […]. Malt yeast agar is prepared by adding 3 g yeast extract and 45 g malt agar per liter of deionized water. The specific agar is dispensed in 30 ml aliquots into 25×200 mm test tubes, capped and autoclaved for 15 minutes at 115° C. The test tubes containing the agar are cooled in a water bath until the temperature of the agar is 48° C. Then, an appropriate amount of the one percent solution of the compound is added (except in the controls where no compound is added) to the respective test tubes so that the final concentrations are 500, 250, 100, 50, 25, 10, 5, 2.5, 1.0 and zero parts per million of the compound in the agar, thus having a known concentration of compound dispersed therein. The contents of the test tubes are then transferred to respective petri plates. After drying for 24 hours, the petri plates containing nutrient agar are inoculated with bacteria and those containing malt yeast agar are inoculated with yeast and fungi.
(§2) The inoculation with bacteria is accomplished by using the following procedure. Twenty-four hour-cultures of each of the bacteria are prepared by incubating the respective bacteria in tubes containing nutrient broth for 24 hours at 30° C. in a shaker. Dilutions of each of the 24 hour-cultures are made so that nine separate suspensions (one for each of the nine test bacteria) are made, each containing 10^8 colony forming units (CFU) per milliliter of suspension of a particular bacteria. Aliquots of 0.3 ml of each of the bacterial suspensions are used to fill the individual wells of Steer's Replicator. For each microbial suspension 0.3 ml was used to fill three wells (i.e., three wells of 0.3 ml each) […] to inoculate both the neutral and alkaline pH nutrient agar petri plates.
(§3) The inoculated petri plates are incubated at 30° C. for 48 hours and then read to determine if the compound which is incorporated into the agar prevented growth of the respective bacteria. […]

Aspergillus niger = assay: Minimum inhibitory concentration (MIC), malt yeast agar; format: cell-based, Aspergillus niger (ATCC 16404); details: An, 30° C., 72 hours (fungi)
Method: (§4) The minimum inhibitory concentration (MIC) for compounds of this invention, listed in Table I, is determined for 9 bacteria, using nutrient agar, and 7 yeast and fungi, using malt yeast agar. A one percent solution of a compound is prepared in a mixture of acetone and water. Nutrient agar is prepared at pH 6.8, representing a neutral medium, and at pH 8.2, representing an alkaline medium. The nutrient agars are prepared by adding 23 g of nutrient agar to one-liter of deionized water. In addition, the alkaline medium is prepared by adjusting a 0.04M solution of N-[tris-(hydroxymethyl)methyl]-glycine buffered deionized water with concentrated sodium hydroxide to a pH of […]. Malt yeast agar is prepared by adding 3 g yeast extract and 45 g malt agar per liter of deionized water. The specific agar is dispensed in 30 ml aliquots into 25×200 mm test tubes, capped and autoclaved for 15 minutes at 115° C. The test tubes containing the agar are cooled in a water bath until the temperature of the agar is 48° C. […]
(§5) The inoculation with the yeast and fungi is accomplished as follows. […] The petri plates are incubated at 30° C. and read after 48 hours for yeast and 72 hours for fungi. […]

Fusarium oxysporum = assay: as above; format: cell-based, Fusarium oxysporum (ATCC 48112); details: Fo, 30° C., 72 hours (fungi)
Method: as §4, §5

Enterobacter aerogenes = assay: Minimum inhibitory concentration (MIC), nutrient agar; format: cell-based, Enterobacter aerogenes (ATCC 13048); details: Ea, 30° C., 48 hours
Method: as §1, §2, §3

Candida albicans = assay: Minimum inhibitory concentration (MIC), malt yeast agar; format: cell-based, Candida albicans (ATCC 10231); details: Ca, 30° C., 48 hours (yeast)
Method: as §4, §5

Trichoderma viride = assay: as above; format: cell-based, Trichoderma viride (ATCC 8678); details: Tv, 30° C., 72 hours (fungi)
Method: as §4, §5

[1] = tested on: Pseudomonas aeruginosa (PRD-10); assay: Minimum inhibitory concentration (MIC), nutrient agar; format: cell-based, Pseudomonas aeruginosa (ATCC 15442); details: 30° C., 48 hours
Method: as §1, §2, §3

Saccharomyces cerevisiae = assay: Minimum inhibitory concentration (MIC), malt yeast agar; format: cell-based, Saccharomyces cerevisiae (ATCC 4105); details: Sc, 30° C., 48 hours (yeast)
Method: as §4, §5

Klebsiella pneumoniae = assay: Minimum inhibitory concentration (MIC), nutrient agar; format: cell-based, Klebsiella pneumoniae (ATCC 8308); details: Kp, 30° C., 48 hours
Method: as §1, §2, §3

Proteus vulgaris = assay: as above; format: cell-based, Proteus vulgaris (ATCC 881); details: Pv, 30° C., 48 hours
Method: as §1, §2, §3

[2] = tested on: Pseudomonas aeruginosa (Pa); assay: as above; format: cell-based, Pseudomonas aeruginosa (ATCC 10145); details: 30° C., 48 hours
Method: as §1, §2, §3

Bacillus subtilis = assay: as above; format: cell-based, Bacillus subtilis (ATCC 8473); details: Bs, 30° C., 48 hours
Method: as §1, §2, §3

Staphylococcus aureus = assay: as above; format: cell-based, Staphylococcus aureus (ATCC 6538); details: Sa, 30° C., 48 hours
Method: as §1, §2, §3

Escherichia coli = assay: as above; format: cell-based, Escherichia coli (ATCC 11229); details: Ec, 30° C., 48 hours
Method: as §1, §2, §3

Penicillium chrysogenum = assay: Minimum inhibitory concentration (MIC), malt yeast agar; format: cell-based, Penicillium chrysogenum (ATCC 9480); details: Pc, 30° C., 72 hours (fungi)
Method: as §4, §5

Row | SMILES | Minimum Inhibitory Concentration (MIC) (Salmonella choleraesuis; pH 6.8, nutrient agar) [ppm] | Minimum Inhibitory Concentration (MIC) (Salmonella choleraesuis; pH 8.2, nutrient agar) [ppm] | Minimum Inhibitory Concentration (MIC) (Aspergillus niger) [ppm] | Minimum Inhibitory Concentration (MIC) (Fusarium oxysporum) [ppm] | Minimum Inhibitory Concentration (MIC) (Enterobacter aerogenes; pH 6.8, nutrient agar) [ppm] | Minimum Inhibitory Concentration (MIC) (Enterobacter aerogenes; pH 8.2, nutrient agar) [ppm] | Minimum Inhibitory Concentration (MIC) (Candida albicans) [ppm] | Minimum Inhibitory Concentration (MIC) (Trichoderma viride) [ppm] | Minimum Inhibitory Concentration (MIC) ([1]; pH 6.8, nutrient agar) [ppm] | Minimum Inhibitory Concentration (MIC) ([1]; pH 8.2, nutrient agar) [ppm] | Minimum Inhibitory Concentration (MIC) (Saccharomyces cerevisiae) [ppm] | Minimum Inhibitory Concentration (MIC) (Klebsiella pneumoniae; pH 6.8, nutrient agar) [ppm] | Minimum Inhibitory Concentration (MIC) (Klebsiella pneumoniae; pH 8.2, nutrient agar) [ppm] | Minimum Inhibitory Concentration (MIC) (Proteus vulgaris; pH 6.8, nutrient agar) [ppm] | Minimum Inhibitory Concentration (MIC) (Proteus vulgaris; pH 8.2, nutrient agar) [ppm] | Minimum Inhibitory Concentration (MIC) ([2]; pH 6.8, nutrient agar) [ppm] | Minimum Inhibitory Concentration (MIC) ([2]; pH 8.2, nutrient agar) [ppm] | Minimum Inhibitory Concentration (MIC) (Bacillus subtilis; pH 6.8, nutrient agar) [ppm] | Minimum Inhibitory Concentration (MIC) (Bacillus subtilis; pH 8.2, nutrient agar) [ppm] | Minimum Inhibitory Concentration (MIC) (Staphylococcus aureus; pH 6.8, nutrient agar) [ppm] | further results
1 | COP(=O)(C=C(Cl)C#N)OC [Compound A, Phosphonic acid, (2-chloro-2-cyanoethenyl)-dimethyl ester] | 250 | > 500 | 250 | 50 | 500 | > 500 | 100 | 100 | 500 | > 500 | 100 | 250 | 500 | 250 | > 500 | 500 | > 500 | 25 | 500 | 50 | Minimum Inhibitory Concentration (MIC) (Staphylococcus aureus; pH 8.2, nutrient agar): > 10 ppm; Minimum Inhibitory Concentration (MIC) (Escherichia coli; pH 6.8, nutrient agar): 250 ppm; Minimum Inhibitory Concentration (MIC) (Escherichia coli; pH 8.2, nutrient agar): > 500 ppm; Minimum Inhibitory Concentration (MIC) (Penicillium chrysogenum): 50 ppm
2 | CCOP(=O)(C=C(Cl)C#N)OCC [Compound B, Phosphonic acid, (2-chloro-2-cyanoethenyl)-diethyl ester] | 25 | > 500 | 250 | 50 | 100 | > 500 | 100 | 100 | 250 | > 500 | 250 | 50 | > 500 | 25 | > 500 | 250 | > 500 | 25 | > 500 | 25 | Minimum Inhibitory Concentration (MIC) (Staphylococcus aureus; pH 8.2, nutrient agar): > 500 ppm; Minimum Inhibitory Concentration (MIC) (Escherichia coli; pH 6.8, nutrient agar): 50 ppm; Minimum Inhibitory Concentration (MIC) (Escherichia coli; pH 8.2, nutrient agar): > 500 ppm; Minimum Inhibitory Concentration (MIC) (Penicillium chrysogenum): 100 ppm
